In article PMC9060023 (Skin Health and Disease, 2021):

Columns and labels:
[1] = test system: cynomolgus monkeys (Macaca fascicularis); test: Pigmentation on the facial skin of cynomolgus monkeys (colorimeter, ΔL*); type: in vivo, cynomolgus monkey
Protocol: This study was conducted in compliance with the ‘Act on Welfare and Management of Animals’ in Japan and the ‘Guidance for Animal Care and Use’ and in accordance with the protocol reviewed by the Institutional Animal Care and Use Committee of the test facility, which is fully accredited by AAALAC International. […] The measurement site (cheek) was the same site on the face for all animals. […] The ΔL* represents the differences of individual L* values between each time point and pre‐test.

[2] = test system: C57BL/6J-Ay/+ mice (Ay/a mice); test: Coat colour darkening in Ay/a mice; type: in vivo, mouse; settings: for Coat colour of all mice: 6 consecutive days
Protocol: (§1) Unless noted otherwise, 3‐week‐old male C57BL/6J‐A^y/+ mice (Ay/a mice) were purchased from Japan SLC, Inc. Mice were housed under specific pathogen‐free conditions, and all animal experiments were conducted according to the Guidelines for Animal Experimentation at our institute. On day 0, the coat of the lower back was shaved, and animals were allocated to experimental groups. […] Assessment of coat colour of the shaved area on day 6 was performed macroscopically in a blinded manner. The dorsal skins were dissected and fixed in a neutralised formalin then embedded in paraffin. Melanin production in the hair roots of the dorsal skin was histologically evaluated by Fontana‐Masson staining.

[3] = Tissue distribution study in rats; type: in vivo, rat; settings: data not shown
[4] = Pharmacokinetic study, 4 weeks repeated oral dosing in cynomolgus monkeys; type: in vivo, cynomolgus monkey; settings: for Cmax / Tmax / AUC(0-t): female, cynomolgus monkey, plasma; for AUC(0-t): read-out: AUC0–24 h
[5] = Pharmacokinetic study, single oral dose in Ay/a mice; type: in vivo, mouse; settings: for Cmax: Ay/a, mouse, po; for Cmax / Tmax / AUC(0-t): plasma; for AUC(0-t): read-out: AUC0–8 h
human MC2R (hMC2R) = molecular target: T1, human MC2R (hMC2R) (Homo sapiens, UniProt Q01718); test: Cyclic AMP assay in CHO-K1 cells expressing human MC2R and MRAP; type: cell-based; settings: data not shown, read-out: EC50 agonistic activity (cAMP)
T1 construct: host or cells: CHO-K1
T1 sequence (Q01718 whole entry): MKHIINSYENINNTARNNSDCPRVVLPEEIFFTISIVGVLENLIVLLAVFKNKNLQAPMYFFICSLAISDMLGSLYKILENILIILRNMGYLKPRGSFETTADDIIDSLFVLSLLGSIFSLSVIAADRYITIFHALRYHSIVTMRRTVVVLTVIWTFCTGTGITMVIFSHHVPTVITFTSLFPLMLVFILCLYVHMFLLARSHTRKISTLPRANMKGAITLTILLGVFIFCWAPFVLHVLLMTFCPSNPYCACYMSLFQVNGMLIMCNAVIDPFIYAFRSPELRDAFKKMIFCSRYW
T1 sequence (Q8TCY5 whole entry partner): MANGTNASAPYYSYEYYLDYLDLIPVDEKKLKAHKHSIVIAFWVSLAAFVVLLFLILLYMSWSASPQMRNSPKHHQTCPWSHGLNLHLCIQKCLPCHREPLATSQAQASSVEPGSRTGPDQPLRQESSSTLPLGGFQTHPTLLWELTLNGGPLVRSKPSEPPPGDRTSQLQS

Tyr, Trp1 and Dct genes = test: Expression of melanogenesis genes in pinnae of Ay/a mice (quantitative real-time PCR); type: in vivo, mouse
Protocol: as §1
Total RNA was extracted using the Qiagen RNeasy Mini Kit (Qiagen), and quantitative real‐time PCR for Tyr, Trp1 and Dct was performed using the One Step SYBR PrimeScript PLUS RT‐PCR Kit (Takara Bio). Hypoxanthine phosphoribosyltransferase 1 (Hprt) was used as an endogenous control for normalisation. The ΔCT method was used to determine the relative expression levels. All PCR primers were purchased from Takara Bio with following product codes, MA153806 (Tyr), MA129755 (Trp1), MA118342 (Dct) and MA031262 (Hprt).

melanocytes in face = test: Chronic toxicity study, histopathology of melanocytes in face; type: in vivo; settings: chronic toxicity study in non-rodent species; data not shown
rat MC1R = molecular target: T2, rat MC1R (Rattus norvegicus, UniProt B6ZGR5); test: Cyclic AMP assay in HEK293 cells stably expressing rat MC1R; type: cell-based; settings: data not shown, read-out: EC50 agonistic activity (cAMP)
T2 construct: expressed in transfected cells; host or cells: HEK293 (Jump-In TI Gateway targeted integration, SV40 promoter)
T2 sequence (B6ZGR5 1-317): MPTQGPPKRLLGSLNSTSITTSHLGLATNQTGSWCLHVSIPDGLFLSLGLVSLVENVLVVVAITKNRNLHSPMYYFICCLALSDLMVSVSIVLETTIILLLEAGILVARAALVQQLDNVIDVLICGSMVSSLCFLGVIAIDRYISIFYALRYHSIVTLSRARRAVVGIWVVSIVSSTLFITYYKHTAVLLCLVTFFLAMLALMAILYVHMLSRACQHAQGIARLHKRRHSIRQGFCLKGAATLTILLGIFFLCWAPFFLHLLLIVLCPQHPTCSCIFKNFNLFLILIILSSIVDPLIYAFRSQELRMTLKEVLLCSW

[6] = molecular target: T3, cynomolgus monkey MC1R (cmMC1R) (Macaca fascicularis, UniProt A3KF53); test: Cyclic AMP assay in HEK293 cells stably expressing cmMC1R; type: cell-based; settings: cmMC1R on HEK293; geometric mean of three experiments; read-out: EC50 agonistic activity (cAMP)
T3 sequence (A3KF53 1-317): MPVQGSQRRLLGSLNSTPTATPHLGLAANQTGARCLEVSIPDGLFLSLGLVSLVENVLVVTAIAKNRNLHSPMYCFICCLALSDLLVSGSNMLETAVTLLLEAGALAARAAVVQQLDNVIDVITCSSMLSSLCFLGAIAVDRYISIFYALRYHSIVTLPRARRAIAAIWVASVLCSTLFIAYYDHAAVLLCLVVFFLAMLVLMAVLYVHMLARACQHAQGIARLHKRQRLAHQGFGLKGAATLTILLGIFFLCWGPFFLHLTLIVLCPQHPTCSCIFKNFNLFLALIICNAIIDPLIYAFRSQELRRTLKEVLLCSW
Protocol: (§2) The site‐specific integration of each MCR gene was carried out in accordance with the Jump‐In^TM TI^TM Gateway® Targeted Integration System user guide (www.lifetechnologies.com) except replacement of tetracycline‐induced CMV promoter into SV40 promoter in MCR expression vector as previously described.[15] This technology enables stable single copy integration at the same location in the genome, equalising expression levels. CHO‐K1 cells expressing human MC2R and accessory protein MRAP were prepared by EuroscreenFast (Gosselies, Belgium).
(§3) Hanks' balanced salt solution containing 1% bovine serum albumin and 10 mmol/l HEPES was prepared and used as an assay buffer. Cells were suspended in the assay buffer containing 0.5 mmol/l 3‐isobutyl‐1‐methylxanthine (Calbiochem) and plated into a microplate. Serially diluted test substances were then added and incubated for 30 min at 37°C. Concentrations of cAMP in the cells were quantified using the cAMP dynamic 2 kit (Cisbio Bioassays) by measuring fluorescence.

[7] = test system: B16F1 mouse melanoma cell line; test: Melanin production in B16F1 cell line; type: cell-based; settings: B16-F1, 72 h, read-out: EC50 of melanin production (95% confidence interval)
Protocol: Dulbecco's modified Eagle medium without phenol red (Life Technologies), containing 10% foetal bovine serum (Gibco) and 100 U/ml of penicillin‐streptomycin (Gibco), was used as the assay medium. Cells (1.5 × 10^4) were seeded into a 96‐well culture plate. Serially diluted test substances were added to the plate and incubated at 37°C in a humidified 5% CO2 incubator for 3 days.

human MC1R (hMC1R) = test: Cyclic AMP assay in HEK293 cells stably expressing hMC1R; type: cell-based; settings: wild type and variants
Protocol: as §2, §3

[8] = Ay/a mouse, male, 0.03 mg/kg oral, day 1
[9] = Ay/a mouse, male, 0.3 mg/kg oral, day 1

SMILES: COC[C@H]1CN(C(=O)[C@]2(F)CN(C3CCCC3)C[C@H]2c2ccc(OC)cc2)C[C@@H]1c1ccc(C(F)(F)F)cc1N1CCC(C(=O)O)CC1 [MT‐7117, dersimelagon]
- Time of dosing after which ΔL* decrease was statistically significant versus vehicle ([1]; 10 mg/kg/day oral): 3 weeks
- Time after cessation of treatment at which pigmentation diminished ([1]; 30 mg/kg group): 16 weeks
- Time of dosing after which ΔL* decrease was statistically significant versus vehicle ([1]; 30 mg/kg/day oral): 1 week
- Time after cessation of treatment at which pigmentation diminished ([1]; 1, 3 and 10 mg/kg groups): 4 weeks
- Time of dosing after which ΔL* decrease was statistically significant versus vehicle ([1]; 1 and 3 mg/kg/day oral): 4 weeks
- Minimum effective dose for skin pigmentation of monkeys ([1]; oral, once daily): 1 mg/kg
- Dose that induced significant skin pigmentation in monkeys ([1]; p.o.): ≥ 1 mg/kg/day
- Coat colour of all mice ([2]; 0.3 mg/kg orally): black
- Coat colour of all mice ([2]; 3 mg/kg orally): black
- Pigment in the hair root (Fontana-Masson staining of dorsal skin) ([2]; 3 mg/kg, day 6): black
- Minimum effective dose for darkening of coat colour of mice ([2]; oral, Ay/a mice): 0.3 mg/kg
- Dose that significantly induced coat colour darkening in mice ([2]; p.o.): ≥ 0.3 mg/kg/day
- Distribution into the brain [3]: less likely to be distributed into the brain
- Cmax ([4]; monkeys, repeated oral dosing 1 mg/kg, read-out: Cmax in molar units): 78 nM
- Increase of plasma levels with dose ([4]; monkeys, 1, 3 and 10 mg/kg): greater than a dose‐proportional increase
- Tmax ([4]; 1 mg/kg oral, day 28): 2.6 h
- AUC(0-t) ([4]; 1 mg/kg oral, day 28): 428 ng·h/mL
- Cmax ([4]; 1 mg/kg oral, day 28, read-out: C max): 53 ng/mL
- Tmax ([4]; 3 mg/kg oral, day 28): 1 h
- AUC(0-t) ([4]; 3 mg/kg oral, day 28): 2510 ng·h/mL
- Cmax ([4]; 3 mg/kg oral, day 28, read-out: C max): 401 ng/mL
- Tmax ([4]; 10 mg/kg oral, day 28): 1.8 h
- AUC(0-t) ([4]; 10 mg/kg oral, day 28): 14100 ng·h/mL
- Cmax ([4]; 10 mg/kg oral, day 28, read-out: C max): 1510 ng/mL
- C max ([5]; Ay/a mouse, male, 0.3 mg/kg oral, day 1, 0.3 mg/kg): 5.62 ng/mL
- Cmax ([5]; male, 0.03 mg/kg, Ay/a mouse, male, 0.03 mg/kg oral, day 1, read-out: C max): 0.668 ng/mL
- Cmax ([5]; male, 0.3 mg/kg, Ay/a mouse, male, 0.3 mg/kg oral, day 1, read-out: C max): 5.6 ng/mL
- Cmax ([5]; male, 0.3 mg/kg, mice, single oral dose 0.3 mg/kg, read-out: Cmax in molar units): 8.3 nM
- Increase of plasma levels with dose ([5]; mice, 0.03 and 0.3 mg/kg): dose‐proportional manner
- Tmax [5, 8]: 0.5 h
- AUC(0-t) [5, 8]: 2.62 ng·h/mL
- Tmax [5, 9]: 2 h
- AUC(0-t) [5, 9]: 31.8 ng·h/mL
- EC50 (human MC2R (hMC2R)): > 10000 nM
- Expression of Tyr, Trp1 and Dct genes in pinnae (Tyr, Trp1 and Dct genes; 0.3 mg/kg single oral dose, 24 h): tendency towards gene upregulation
- Expression of Tyr, Trp1 and Dct genes in pinnae (Tyr, Trp1 and Dct genes; 3 mg/kg single oral dose, 24, 48 and 72 h, relative to Hprt): significantly upregulated
- Histopathological change for melanocytes in face (melanocytes in face): no histopathological change
- EC50 (rat MC1R): 0.251 nM
- EC50 [6]: 3.91 nM
- EC50 [7]: 0.013 nM
- Emax of cAMP production compared with αMSH (human MC1R (hMC1R)): same level as that of the endogenous agonist αMSH
